Results on 14 molecules are retold here after patent US20020183384A1, “Methods of treating nuclear factor-kappa B mediated diseases and disorders” (priority 2001, published 2002).

The test relates to NF-κB mediated transcription. The experiment in a line: NF-κB driven β-lactamase reporter assay in ECV-304 NF-κB.βlaZ cells (AURORA CCF2 fluorescence). It counts as cell-based, human. The following applies: 10 μM compound, ECV-304 NF-κB.βlaZ cells stimulated with 10 ng/mL TNF-α or 100 pg/mL IL-1β, 6 hours at 37° C., inhibition of maximum blue/green ratio; for inhibition at 10 µM: Homo sapiens, read-out: Percent Inhibition at 10 μM. The procedure, abridged:
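Blue/green (460/530 nm, excitation 395 nm) CCF2 emission ratio quantified NF-κB-driven β-lactamase expression in the stably transfected endothelial-like ECV-304 clone 1E8.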

Where two headings read alike, the source gives them in different places.

On to `CC(C)c1cccc(C(C)C)c1NC(=O)NS(=O)(=O)Nc1c(C(C)C)cccc1C(C)C` [Example 7, Urea, N-[2 ,6-bis(1-methylethyl)phenyl]-N′-[[[2,6-bis(1-methylethyl)phenyl]-amino]sulfonyl]-], for which the “Percent Inhibition at 10 μM” value is 37.04%.
In general, inhibition refers to how much of the control response was suppressed. In the case of `CCCCCCCCCCCCCCS(=O)(=O)N(C)C(=O)Nc1c(C(C)C)cccc1C(C)C` [Example 241, N′-[2,6-bis(1-methylethyl)phenyl]-N-methyl-N-(tetradecylsulfonyl)-urea], the inhibition at 10 µM (ECV-304, 6 h) is below 10%.
`CC(C)c1cc(C(C)C)c(CC(=O)NS(=O)(=O)Oc2c(C(C)C)cc(C=CC#N)cc2C(C)C)c(C(C)C)c1` [Example 224, [(2,4,6-Triisopropyl-phenyl)-acetyl]-sulfamic acid 4-(2-cyano-vinyl)-2,6-diisopropyl-phenyl ester]: the inhibition at 10 µM (ECV-304, 6 h) was below 10%.
As to `CCCCCCC(C)OC(=O)NS(=O)(=O)Oc1c(C(C)C)cccc1C(C)C` (centres unmarked) [Example 109, Carbamic acid, [[2,6-bis(1-methylethyl)phenoxy]sulfonyl]-, 1-methylheptyl ester], the inhibition at 10 µM (ECV-304, 6 h) stood at 51.4%.
With `CCCCCCCCCCCCCC(C)(C)S(=O)(=O)NC(=O)Nc1c(C(C)C)cccc1C(C)C` [Example 248, N-[2,6-bis(1-methylethyl)phenyl]-N′-(2-methyl-2-pentadecylsulfonyl)urea], the inhibition at 10 µM (ECV-304, 6 h) turned out to be 11.4%.
As for `CC(C)c1cccc(C(C)C)c1NC(=O)NS(=O)(=O)N(CCCN(C)C)CCCN(C)C` [Example 37, N-[[bis[3-(dimethylamino)propyl]amino]sulfonyl]-N′-[2,6-bis(1-methylethyl)phenyl]-urea], for the setting “ECV-304, 6 h”, the inhibition at 10 µM is below 10%.
`CC(C)c1cccc(C(C)C)c1NC(=O)NS(=O)(=O)N1CCC(c2ccccc2)CC1` [Example 35, N-[2,6-bis(1-methylethyl)phenyl]-N′-[(4-phenyl-1-piperidinyl)-sulfonyl]-urea]: the inhibition at 10 µM (ECV-304, 6 h) is below 10%.
`CCCCCCCCN(CCCCCCCC)S(=O)(=O)NC(=O)Nc1c(C(C)C)cccc1C(C)C` [Example 23, N-[2,6-bis(1-methylethyl)phenyl]-N′-[(dioctylamino)sulfonyl]-urea]: the inhibition at 10 µM (ECV-304, 6 h) came to 38.7%.
Same read-out and setting: next, `COc1cc(OC)c(OS(=O)(=O)NC(=O)Cc2c(C(C)C)cc(C(C)C)cc2C(C)C)c(OC)c1` [Example 189, [(2,4,6-Triisopropyl-phenyl)-acetyl]-sulfamic acid 2,4,6-trimethoxy-phenyl ester]: 15.1%; `CC(C)c1cc(C(C)C)c(CC(=O)NS(=O)(=O)Oc2c(C(C)C)cc(O)cc2C(C)C)c(C(C)C)c1` [Example 180, [(2,4,6-Triisopropyl-phenyl)-acetyl]-sulfamic acid 4-hydroxy-2,6-diisopropyl-phenyl ester]: 92%.
Turning to `CC(C)c1cc(C(C)C)c(CC(=O)N(C)S(=O)(=O)Oc2c(C(C)C)cccc2C(C)C)c(C(C)C)c1` [Example 181, Methyl-[(2,4,6-triisopropyl-phenyl)-acetyl]-sulfamic acid 2,6-diisopropyl-phenyl ester], the inhibition at 10 µM (ECV-304, 6 h) is below 10%.
As for `COc1cc(C(C)(C)C)c(OC(=O)NS(=O)(=O)NCC(c2ccccc2)c2ccccc2)c(C(C)(C)C)c1` [Example 47, Carbamic acid, [[(2,2-diphenylethyl)amino]sulfonyl]-, 2,6-bis(1,1-dimethylethyl)-4-methoxyphenyl ester], the inhibition at 10 µM is 41.9%.
With `CCCCCCCCCCCCOC(=O)NS(=O)(=O)Oc1c(C(C)C)cccc1C(C)C` [Example 55, Carbamic acid, [[2,6-bis(1-methylethyl)phenoxy]sulfonyl]-, dodecyl ester], where the note is “ECV-304, 6 h”, the inhibition at 10 µM was found to be 55.1%.
Consider `CCCCCCOS(=O)(=O)NC(=O)Oc1c(C(C)C)cccc1C(C)C` [Example 57, Carbamic acid, [(hexyloxy)sulfonyl]-, 2,6-bis(1-methylethyl)phenyl ester], for which the inhibition at 10 µM stood at 20.4%.
